Measured values from US6541423B1, “4-(3′,4′-heterocyclyl benzoyl) pyrazoles as herbicidal agents” (BASF Aktiengesellschaft, priority 1999, dated 2003).

Columns and labels:
SOLNI = test: greenhouse post-emergence herbicidal test; type: in vivo, black nightshade
Excerpt: (§1) The culture containers used were plastic flowerpots containing loamy sand with approximately 3.0% of humus as substrate. The seeds of the test plants were sown separately for each species. For the post-emergence treatment, the test plants were first grown to a plant height of from 3 to 15 cm, depending on the plant habit, and only then treated with the active ingredients which had been suspended or emulsified in water. To this end, the test plants were either sown directly and grown in the same containers, or they were first grown separately as seedlings and transplanted into the test containers a few days prior to treatment. […] Depending on the species, the plants were kept at from 10 to 25° C., or 20-35° C., respectively. The test period extended over 2 to 4 weeks. During this time, the plants were tended, and their response to the individual treatments was evaluated. Evaluation was carried out using a scale of from 0 to 100. 100 means no emergence of the plants, or complete destruction of at least the aerial parts, and 0 means no damage, or normal course of growth. [table]

PAPRH = test: greenhouse post-emergence herbicidal test; type: in vivo, corn poppy
Excerpt: as §1

EPHHL = test: greenhouse post-emergence herbicidal test; type: in vivo, spurge
Excerpt: as §1

CHEAL = test: greenhouse post-emergence herbicidal test; type: in vivo, lambsquarters (goosefoot)
Excerpt: as §1

wheat = test: greenhouse post-emergence test, crop selectivity; type: in vivo, spring wheat; details: application rates 0.125 and 0.0625 kg/ha
Excerpt: as §1

MYOAR = test: greenhouse post-emergence herbicidal test; type: in vivo, forget-me-not
Excerpt: as §1

THLAR = test: greenhouse post-emergence herbicidal test; type: in vivo, fanweed
Excerpt: as §1

LAMAM = test: greenhouse post-emergence herbicidal test; type: in vivo, henbit
Excerpt: as §1

POLPE = test: greenhouse post-emergence herbicidal test; type: in vivo, ladysthumb
Excerpt: as §1

AVEFA = test: greenhouse post-emergence herbicidal test; type: in vivo, wild oats
Excerpt: as §1

ECHCG = test: greenhouse post-emergence herbicidal test; type: in vivo, barnyard grass
Excerpt: as §1

AMARE = test: greenhouse post-emergence herbicidal test; type: in vivo, redroot pigweed
Excerpt: as §1

STEME = test: greenhouse post-emergence herbicidal test; type: in vivo, common chickweed
Excerpt: as §1

GASPA = test: greenhouse post-emergence herbicidal test; type: in vivo, smallflower; details: application rates 0.125 and 0.0625 kg/ha
Excerpt: as §1

GALAP = test: greenhouse post-emergence herbicidal test; type: in vivo, catchweed bedstraw; details: application rates 0.5 and 0.25 kg/ha (a.s.)
Excerpt: The culture containers used were plastic flowerpots containing loamy sand with approximately 3.0% of humus as substrate. The seeds of the test plants were sown separately for each species. For the post-emergence treatment, the test plants were first grown to a plant height of from 3 to 15 cm, depending on the plant habit, and only then treated with the active ingredients which had been suspended or emulsified in water. To this end, the test plants were either sown directly and grown in the same containers, or they were first grown separately as seedlings and transplanted into the test containers a few days prior to treatment. The rate of application for the post-emergence treatment was 0.5 or 0.25 kg of a.s. (active. substance)/ha. Depending on the species, the plants were kept at from 10 to 25° C., or 20-35° C., respectively. The test period extended over 2 to 4 weeks. During this time, the plants were tended, and their response to the individual treatments was evaluated. Evaluation was carried out using a scale of from 0 to 100. 100 means no emergence of the plants, or complete destruction of at least the aerial parts, and 0 means no damage, or normal course of growth. [table]

[1] = application rates 0.125 and 0.0625 kg/ha
[2] = application rates 0.25 and 0.125 kg/ha
[3] = application rates 0.5 and 0.25 kg/ha (a.s.)
[4] = application rates 0.5 and 0.25 kg/ha

Row | Compound | herbicidal action against PAPRH (PAPRH; [2]) | herbicidal action against THLAR (THLAR; [2]) | herbicidal action against LAMAM (LAMAM; [2]) | herbicidal action against CHEAL (CHEAL; [2]) | herbicidal action against POLPE (POLPE; [2]) | herbicidal action against AMARE (AMARE; [2]) | also measured
1 | Cc1c(C(=O)c2cnn(C)c2OCc2ccccc2)ccc2scnc12 [Example 13, 4-(4′-methylbenzothiazol-5′-ylcarbonyl)-5-benzyloxy-1-methylpyrazole] | – | – | – | – | – | – | herbicidal action against SOLNI (SOLNI; [1]): very good herbicidal action; herbicidal action against PAPRH (PAPRH; [1]): very good herbicidal action; herbicidal action against EPHHL (EPHHL; [1]): very good herbicidal action; herbicidal action against CHEAL (CHEAL; [1]): very good herbicidal action; selectivity in wheat (wheat): selectivity in wheat; herbicidal action against MYOAR (MYOAR; [1]): very good herbicidal action
2 | CCc1nc2c(C)c(C(=O)c3cnn(C)c3O)ccc2o1 [Example 30, 4-(2′-ethyl-4′-methylbenzoxazol-5′-ylcarbonyl)-5-hydroxy-1-methylpyrazole] | very good herbicidal action | very good herbicidal action | very good herbicidal action | very good herbicidal action | very good herbicidal action | – | –
3 | Cc1c(C(=O)c2cnn(C)c2OC(=O)c2ccccc2)ccc2scnc12 [Example 15, 4-(4′-methylbenzothiazol-5′-ylcarbonyl)-5-benzoyloxy-1-methylpyrazole] | – | – | – | very good herbicidal action | very good herbicidal action | very good herbicidal action | herbicidal action against AVEFA (AVEFA; [2]): very good herbicidal action; herbicidal action against ECHCG (ECHCG; [2]): very good herbicidal action
4 | Cc1c(C(=O)c2cnn(C(C)C)c2O)ccc2scnc12 [Example 12, 4-(4′-methylbenzothiazol-5′-ylcarbonyl)-5-hydroxy-1-isopropylpyrazole] | very good herbicidal action | very good herbicidal action | very good herbicidal action | very good herbicidal action | – | – | herbicidal action against STEME (STEME; [2]): very good herbicidal action
5 | Cc1nc2c(C)c(C(=O)c3cnn(C(C)C)c3O)ccc2s1 [Example 33, 4-(2′,4′-dimethylbenzothiazol-5′-ylcarbonyl)-5-hydroxy-1-isopropylpyrazole] | very good herbicidal action | very good herbicidal action | very good herbicidal action | very good herbicidal action | – | very good herbicidal action | herbicidal action against MYOAR (MYOAR; [2]): very good herbicidal action
6 | Cc1nc2c(C)c(C(=O)c3cnn(C)c3O)ccc2s1 [Example 14, 4-(2′,4′-dimethylbenzothiazol-5′-ylcarbonyl)-5-hydroxy-1-methylpyrazole] | – | – | – | – | – | – | herbicidal action against GASPA (GASPA): very good herbicidal action; herbicidal action against THLAR (THLAR; [1]): very good herbicidal action; herbicidal action against LAMAM (LAMAM; [1]): very good herbicidal action; herbicidal action against STEME (STEME; [1]): very good herbicidal action
7 | COCc1nc2c(C)c(C(=O)c3cnn(C(C)C)c3O)ccc2s1 [Example 36, 4-(2′-methoxymethyl-4′-methylbenzothiazol-5′-ylcarbonyl)-5-hydroxy-1-isopropylpyrazole] | very good herbicidal action | – | – | very good herbicidal action | – | – | herbicidal action against SOLNI (SOLNI; [2]): very good herbicidal action; herbicidal action against EPHHL (EPHHL; [2]): very good herbicidal action; herbicidal action against STEME (STEME; [2]): very good herbicidal action; herbicidal action against MYOAR (MYOAR; [2]): very good herbicidal action
8 | COCc1nc2c(C)c(C(=O)c3cnn(C)c3O)ccc2s1 [Example 34, 4-(2′-methoxymethyl-4′-methylbenzothiazol-5′-ylcarbonyl)-5-hydroxy-1-methylpyrazole] | very good herbicidal action | very good herbicidal action | very good herbicidal action | very good herbicidal action | – | – | herbicidal action against STEME (STEME; [2]): very good herbicidal action
9 | Cc1c(C(=O)c2cnn(C)c2O)ccc2scnc12 [Example 1, 4-[4′-Methylbenzothiazol-5′-ylcarbonyl]-5-hydroxy-1-methylpyrazole] | – | – | – | – | – | – | herbicidal action against SOLNI (SOLNI; [3]): very good herbicidal action; herbicidal action against AVEFA (AVEFA; [3]): very good herbicidal action; melting point: 149 to 150 °C; herbicidal action against GALAP (GALAP): very good herbicidal action; herbicidal action against CHEAL (CHEAL; [3]): very good herbicidal action; herbicidal action against POLPE (POLPE; [3]): very good herbicidal action
10 | CCc1nc2c(C)c(C(=O)c3cnn(C(C)C)c3O)ccc2o1 [Example 31, 4-(2′-ethyl-4′-methylbenzoxazol-5′-ylcarbonyl)-5-hydroxy-1-isopropylpyrazole] | very good herbicidal action | very good herbicidal action | very good herbicidal action | very good herbicidal action | very good herbicidal action | very good herbicidal action | –
11 | Cc1c(C(=O)c2cnn(C)c2OC(=O)c2cccc(F)c2)ccc2scnc12 [Example 16, 4-(4′-methylbenzothiazol-5′-ylcarbonyl)-5-(3″-fluorobenzoyl)oxy-1-methylpyrazole] | – | – | – | – | – | – | herbicidal action against ECHCG (ECHCG; [4]): very good herbicidal action; herbicidal action against GALAP (GALAP): very good herbicidal action; herbicidal action against CHEAL (CHEAL; [3]): very good herbicidal action; herbicidal action against POLPE (POLPE; [3]): very good herbicidal action; herbicidal action against AMARE (AMARE; [4]): very good herbicidal action
12 | Cc1c(C(=O)c2cnn(C)c2OC(=O)C2CC2)ccc2scnc12 [Example 18, 4-(4′-methylbenzothiazol-5′-ylcarbonyl)-5-cyclopropylcarbonyloxy-1-methylpyrazole] | – | – | – | very good herbicidal action | very good herbicidal action | very good herbicidal action | herbicidal action against AVEFA (AVEFA; [2]): very good herbicidal action; herbicidal action against ECHCG (ECHCG; [2]): very good herbicidal action
